# No end group written: not given here.
# Test system: IgG of sera from MS patients and healthy individuals
# Experiment: ELISA of biotinylated synthetic peptides, IgG response of individual human sera
# Format: binding
# Conditions: for MS sera giving a positive IgG signal compared with the negative serum which gave the highest signal: 1/100 dilutions of 11 sera from MS patients at the remission stage; for MS sera giving a positive IgG signal compared with the negative serum which gave the highest signal / MS sera recognizing the peptide significantly, cut-off mean of negative sera plus 3 times the standard deviation: 4 negative sera; for MS sera recognizing the peptide significantly, cut-off mean of negative sera plus 3 times the standard deviation / BASELINE / MEAN / OD 1 / OD 2 / OD 3 / BASELINE (mark: above cut-off): IgG; for MS sera recognizing the peptide significantly, cut-off mean of negative sera plus 3 times the standard deviation: 1/100 dilutions of 11 MS remission sera; for BASELINE: cut-off, mean of negative sera plus 3 times the standard deviation; for MEAN / OD 1 / OD 2 / OD 3 / BASELINE (mark: above cut-off): 1/100
# Experimental: Depending on the information obtained from the preceding examples, the hexapeptides SEQ ID NO: 3 and SEQ ID NO: 4 were synthesized and biotinylated according to the method described in Patent Application No. EP 93420183 with the following modifications: the peptide still bound to the resin is selectively deprotected at the N-terminal position. After overnight incubation with the biotin-NHS at 50% in DMF, the peptide is then cleaved from the resin and treated as described in the patent cited above.
# The wells of a Maxisorb (trade name, Nunc) microtiter plate are saturated with 100 μl of a 50 mM NaHCO3 solution, pH 9.6, containing 10 μg/ml of streptavidin for 2 hours at 37° C. The plate is washed with TBS/0.05% Tween 20 buffer. The wells are then saturated with 250 μl of wash buffer supplemented with 10% goat serum for 1 hour at 37° C. and then washed as described above.
# The sera to be analyzed are diluted 1/100 in saturation buffer, supplemented with 0.05% Tween 20 and incubated for 2 hours at 37° C. After washing, a solution of peroxidase-labeled anti-human immunoglobulin G goat antibody conjugate (marketed by Jackson Immuno Research Laboratories Inc.) is added at the dilution of 1/10,000 and the plates are incubated for 1 hour at 37° C. After washes, the ortho-phenylenediamine (OPD) substrate is added and the reaction is stopped after 10 minutes by adding 50 μl of H2SO4. The optical density is read at 492 nm.
# In a test carried out with 1/100 dilutions of 11 English sera from MS patients at the remission stage and 4 negative English sera, the peptides SEQ ID NOs: 3 and 4 are recognized by 4 sera out of 11 which give a positive IgG signal compared with the negative serum which gave the highest signal.
substance,measurement,setting,value
STGRPL [SEQ ID NO: 4],MS sera giving a positive IgG signal compared with the negative serum which gave the highest signal,,4 sera out of 11
same,"MS sera recognizing the peptide significantly, cut-off mean of negative sera plus 3 times the standard deviation",,3 sera out of 11
same,BASELINE,,674 optical density (×1000)
same,MEAN,"serum 33/6 (MS+, remission)",496 optical density (×1000)
same,OD 1,"serum 33/6 (MS+, remission)",465 optical density (×1000)
same,OD 2,"serum 33/6 (MS+, remission)",496 optical density (×1000)
same,OD 3,"serum 33/6 (MS+, remission)",525 optical density (×1000)
same,BASELINE (mark: above cut-off),"serum 33/8 (MS+, remission)",X (the mean of the values obtained with the negative sera is calculated and 3 times the standard deviation is added in order to determine a cut-off)
same,MEAN,"serum 33/8 (MS+, remission)",807 optical density (×1000)
same,OD 1,"serum 33/8 (MS+, remission)",849 optical density (×1000)
same,OD 2,"serum 33/8 (MS+, remission)",820 optical density (×1000)
same,OD 3,"serum 33/8 (MS+, remission)",753 optical density (×1000)
same,MEAN,"serum 33/18 (MS+, remission)",267 optical density (×1000)
same,OD 1,"serum 33/18 (MS+, remission)",258 optical density (×1000)
same,OD 2,"serum 33/18 (MS+, remission)",243 optical density (×1000)
same,OD 3,"serum 33/18 (MS+, remission)",299 optical density (×1000)
same,MEAN,"serum No. 12 (MS−, healthy)",518 optical density (×1000)
same,OD 1,"serum No. 12 (MS−, healthy)",567 optical density (×1000)
same,OD 2,"serum No. 12 (MS−, healthy)",518 optical density (×1000)
same,OD 3,"serum No. 12 (MS−, healthy)",469 optical density (×1000)
same,MEAN,"serum No. 13 (MS−, healthy)",271 optical density (×1000)
same,OD 1,"serum No. 13 (MS−, healthy)",286 optical density (×1000)
same,OD 2,"serum No. 13 (MS−, healthy)",278 optical density (×1000)
same,OD 3,"serum No. 13 (MS−, healthy)",268 optical density (×1000)
same,MEAN,"serum No. 14 (MS−, healthy)",359 optical density (×1000)
same,OD 1,"serum No. 14 (MS−, healthy)",322 optical density (×1000)
same,OD 2,"serum No. 14 (MS−, healthy)",401 optical density (×1000)
same,OD 3,"serum No. 14 (MS−, healthy)",354 optical density (×1000)
same,MEAN,"serum No. 15 (MS−, healthy)",442 optical density (×1000)
same,OD 1,"serum No. 15 (MS−, healthy)",423 optical density (×1000)
same,OD 2,"serum No. 15 (MS−, healthy)",432 optical density (×1000)
same,OD 3,"serum No. 15 (MS−, healthy)",470 optical density (×1000)
same,MEAN,"serum QS 2 (MS+, remission)",277 optical density (×1000)
same,OD 1,"serum QS 2 (MS+, remission)",267 optical density (×1000)
same,OD 2,"serum QS 2 (MS+, remission)",296 optical density (×1000)
same,OD 3,"serum QS 2 (MS+, remission)",267 optical density (×1000)
same,MEAN,"serum QS 3 (MS+, remission)",624 optical density (×1000)
same,OD 1,"serum QS 3 (MS+, remission)",668 optical density (×1000)
same,OD 2,"serum QS 3 (MS+, remission)",618 optical density (×1000)
same,OD 3,"serum QS 3 (MS+, remission)",585 optical density (×1000)
same,BASELINE (mark: above cut-off),"serum QS 4 (MS+, remission)",X (the mean of the values obtained with the negative sera is calculated and 3 times the standard deviation is added in order to determine a cut-off)
same,MEAN,"serum QS 4 (MS+, remission)",1026 optical density (×1000)
same,OD 1,"serum QS 4 (MS+, remission)",1096 optical density (×1000)
same,OD 2,"serum QS 4 (MS+, remission)",1120 optical density (×1000)
same,OD 3,"serum QS 4 (MS+, remission)",862 optical density (×1000)
same,MEAN,"serum QS 6 (MS+, remission)",206 optical density (×1000)
same,OD 1,"serum QS 6 (MS+, remission)",204 optical density (×1000)
same,OD 2,"serum QS 6 (MS+, remission)",212 optical density (×1000)
same,OD 3,"serum QS 6 (MS+, remission)",201 optical density (×1000)
same,BASELINE (mark: above cut-off),"serum QS 7 (MS+, remission)",X (the mean of the values obtained with the negative sera is calculated and 3 times the standard deviation is added in order to determine a cut-off)
same,MEAN,"serum QS 7 (MS+, remission)",1380 optical density (×1000)
same,OD 1,"serum QS 7 (MS+, remission)",1379 optical density (×1000)
same,OD 2,"serum QS 7 (MS+, remission)",1437 optical density (×1000)
same,OD 3,"serum QS 7 (MS+, remission)",1323 optical density (×1000)
same,MEAN,"serum QS 8 (MS+, remission)",552 optical density (×1000)
same,OD 1,"serum QS 8 (MS+, remission)",523 optical density (×1000)
same,OD 2,"serum QS 8 (MS+, remission)",504 optical density (×1000)
same,OD 3,"serum QS 8 (MS+, remission)",630 optical density (×1000)
same,MEAN,"serum QS 11 (MS+, remission)",269 optical density (×1000)
same,OD 1,"serum QS 11 (MS+, remission)",272 optical density (×1000)
same,OD 2,"serum QS 11 (MS+, remission)",273 optical density (×1000)
same,OD 3,"serum QS 11 (MS+, remission)",261 optical density (×1000)
same,MEAN,"serum QS 12 (MS+, remission)",237 optical density (×1000)
same,OD 1,"serum QS 12 (MS+, remission)",271 optical density (×1000)
same,OD 2,"serum QS 12 (MS+, remission)",227 optical density (×1000)
same,OD 3,"serum QS 12 (MS+, remission)",212 optical density (×1000)
LQQAVF [SEQ ID NO: 3],MS sera giving a positive IgG signal compared with the negative serum which gave the highest signal,,4 sera out of 11
same,"MS sera recognizing the peptide significantly, cut-off mean of negative sera plus 3 times the standard deviation",,3 sera out of 11
same,BASELINE,,815 optical density (×1000)
same,MEAN,"serum 33/6 (MS+, remission)",587 optical density (×1000)
same,OD 1,"serum 33/6 (MS+, remission)",535 optical density (×1000)
same,OD 2,"serum 33/6 (MS+, remission)",599 optical density (×1000)
same,OD 3,"serum 33/6 (MS+, remission)",626 optical density (×1000)
same,BASELINE (mark: above cut-off),"serum 33/8 (MS+, remission)",X (the mean of the values obtained with the negative sera is calculated and 3 times the standard deviation is added in order to determine a cut-off)
same,MEAN,"serum 33/8 (MS+, remission)",1067 optical density (×1000)
same,OD 1,"serum 33/8 (MS+, remission)",990 optical density (×1000)
same,OD 2,"serum 33/8 (MS+, remission)",941 optical density (×1000)
same,OD 3,"serum 33/8 (MS+, remission)",1271 optical density (×1000)
same,MEAN,"serum 33/18 (MS+, remission)",395 optical density (×1000)
same,OD 1,"serum 33/18 (MS+, remission)",601 optical density (×1000)
same,OD 2,"serum 33/18 (MS+, remission)",339 optical density (×1000)
same,OD 3,"serum 33/18 (MS+, remission)",246 optical density (×1000)
same,MEAN,"serum No. 12 (MS−, healthy)",639 optical density (×1000)
same,OD 1,"serum No. 12 (MS−, healthy)",550 optical density (×1000)
same,OD 2,"serum No. 12 (MS−, healthy)",640 optical density (×1000)
same,OD 3,"serum No. 12 (MS−, healthy)",726 optical density (×1000)
same,MEAN,"serum No. 13 (MS−, healthy)",377 optical density (×1000)
same,OD 1,"serum No. 13 (MS−, healthy)",366 optical density (×1000)
same,OD 2,"serum No. 13 (MS−, healthy)",369 optical density (×1000)
same,OD 3,"serum No. 13 (MS−, healthy)",407 optical density (×1000)
same,MEAN,"serum No. 14 (MS−, healthy)",307 optical density (×1000)
same,OD 1,"serum No. 14 (MS−, healthy)",367 optical density (×1000)
same,OD 2,"serum No. 14 (MS−, healthy)",285 optical density (×1000)
same,OD 3,"serum No. 14 (MS−, healthy)",270 optical density (×1000)
same,MEAN,"serum No. 15 (MS−, healthy)",452 optical density (×1000)
same,OD 1,"serum No. 15 (MS−, healthy)",439 optical density (×1000)
same,OD 2,"serum No. 15 (MS−, healthy)",496 optical density (×1000)
same,OD 3,"serum No. 15 (MS−, healthy)",422 optical density (×1000)
same,MEAN,"serum QS 2 (MS+, remission)",309 optical density (×1000)
same,OD 1,"serum QS 2 (MS+, remission)",294 optical density (×1000)
same,OD 2,"serum QS 2 (MS+, remission)",339 optical density (×1000)
same,OD 3,"serum QS 2 (MS+, remission)",293 optical density (×1000)
same,MEAN,"serum QS 3 (MS+, remission)",727 optical density (×1000)
same,OD 1,"serum QS 3 (MS+, remission)",618 optical density (×1000)
same,OD 2,"serum QS 3 (MS+, remission)",784 optical density (×1000)
same,OD 3,"serum QS 3 (MS+, remission)",779 optical density (×1000)
same,BASELINE (mark: above cut-off),"serum QS 4 (MS+, remission)",X (the mean of the values obtained with the negative sera is calculated and 3 times the standard deviation is added in order to determine a cut-off)
same,MEAN,"serum QS 4 (MS+, remission)",1346 optical density (×1000)
same,OD 1,"serum QS 4 (MS+, remission)",1161 optical density (×1000)
same,OD 2,"serum QS 4 (MS+, remission)",1293 optical density (×1000)
same,OD 3,"serum QS 4 (MS+, remission)",1583 optical density (×1000)
same,MEAN,"serum QS 6 (MS+, remission)",325 optical density (×1000)
same,OD 1,"serum QS 6 (MS+, remission)",306 optical density (×1000)
same,OD 2,"serum QS 6 (MS+, remission)",263 optical density (×1000)
same,OD 3,"serum QS 6 (MS+, remission)",407 optical density (×1000)
same,BASELINE (mark: above cut-off),"serum QS 7 (MS+, remission)",X (the mean of the values obtained with the negative sera is calculated and 3 times the standard deviation is added in order to determine a cut-off)
same,MEAN,"serum QS 7 (MS+, remission)",1355 optical density (×1000)
same,OD 1,"serum QS 7 (MS+, remission)",1307 optical density (×1000)
same,OD 2,"serum QS 7 (MS+, remission)",1298 optical density (×1000)
same,OD 3,"serum QS 7 (MS+, remission)",1461 optical density (×1000)
same,MEAN,"serum QS 8 (MS+, remission)",615 optical density (×1000)
same,OD 1,"serum QS 8 (MS+, remission)",664 optical density (×1000)
same,OD 2,"serum QS 8 (MS+, remission)",635 optical density (×1000)
same,OD 3,"serum QS 8 (MS+, remission)",545 optical density (×1000)
same,MEAN,"serum QS 11 (MS+, remission)",235 optical density (×1000)
same,OD 1,"serum QS 11 (MS+, remission)",429 optical density (×1000)
same,OD 2,"serum QS 11 (MS+, remission)",169 optical density (×1000)
same,OD 3,"serum QS 11 (MS+, remission)",108 optical density (×1000)
same,MEAN,"serum QS 12 (MS+, remission)",398 optical density (×1000)
same,OD 1,"serum QS 12 (MS+, remission)",405 optical density (×1000)
same,OD 2,"serum QS 12 (MS+, remission)",472 optical density (×1000)
same,OD 3,"serum QS 12 (MS+, remission)",316 optical density (×1000)
